Measurements reported in US10694746B2, “Fungicidal composition” (JIANGSU HUIFENG BIO AGRICULTURE CO., LTD., priority 2016, dated 2020).
In brackets after ≈: the same amount, converted by molar mass.

Legend:
Format in all cases: in vivo
[1] = test system: apple anthracnose; test: Toxicity test of BBIT combined with mancozeb on apple anthracnose (bioassay); settings: for ATI (actual toxicity index): (EC50 of standard/EC50 of test agent)*100, standard BBIT; for EC50: apple anthracnose
[2] = test system: cucumber downy mildew; test: Toxicity test of BIT combined with mancozeb on cucumber downy mildew (bioassay); settings: for ATI (actual toxicity index): (EC50 of standard/EC50 of test agent)*100, standard BIT; for EC50: cucumber downy mildew
[3] = test system: potato late blight; settings: for ATI (actual toxicity index): (EC50 of standard/EC50 of test agent)*100, standard MBIT; for EC50: potato late blight

Molecule	ATI (actual toxicity index) [1]	EC50 [1]	ATI (actual toxicity index) [2]	EC50 [2]	ATI (actual toxicity index) [3]	EC50 [3]
CCCCn1sc2ccccc2c1=O [BBIT, 2-n-butyl-1,2-benzisothiazolin-3-one]	100	19.09 µg/mL	–	–	–	–
O=c1[nH]sc2ccccc12 [BIT, 1,2-benzisothiazolin-3-one]	–	–	100.00	13.5 µg/mL	–	–
Cn1sc2ccccc2c1=O [MBIT, 2-methyl-1,2-benzisothiazolin-3-one]	–	–	–	–	100.00	14.81 µg/mL (≈ 89.6 µM)
mancozeb	20.67	92.36 µg/mL	17.96	75.17 µg/mL	21.69	68.27 µg/mL
